Key:
ΔppGalNAcT = biological target: T1, ΔppGalNAcT (Biomphalaria glabrata, UniProt S5S833); assay: GalNAc transfer to acceptor peptide, reversed-phase HPLC at […] nm; assay type: biochemical; conditions: 40 nmol UDP-GalNAc in 20 μl, 10 mM MnCl2, 50 mM MES pH 7.0, 37 °C, 90 min, acceptor peptide 20 μg
T1 construct: catalytic part only: amino acids 1-26 and the lectin domain (477-600) removed; Sf9 insect cells, purified

Bge-ppGalNAcT = biological target: T2, Bge-ppGalNAcT (Biomphalaria glabrata, UniProt S5S833); assay: as above; assay type: biochemical; conditions: 40 nmol UDP-GalNAc in 20 μl, 10 mM MnCl2, 50 mM MES pH 7.0, 37 °C, 90 min, acceptor peptide 20 μg
T2 construct: without cytoplasmic tail and transmembrane domain (amino acids 1-26 removed); catalytic plus lectin domain
T2 sequence (S5S833 27-600): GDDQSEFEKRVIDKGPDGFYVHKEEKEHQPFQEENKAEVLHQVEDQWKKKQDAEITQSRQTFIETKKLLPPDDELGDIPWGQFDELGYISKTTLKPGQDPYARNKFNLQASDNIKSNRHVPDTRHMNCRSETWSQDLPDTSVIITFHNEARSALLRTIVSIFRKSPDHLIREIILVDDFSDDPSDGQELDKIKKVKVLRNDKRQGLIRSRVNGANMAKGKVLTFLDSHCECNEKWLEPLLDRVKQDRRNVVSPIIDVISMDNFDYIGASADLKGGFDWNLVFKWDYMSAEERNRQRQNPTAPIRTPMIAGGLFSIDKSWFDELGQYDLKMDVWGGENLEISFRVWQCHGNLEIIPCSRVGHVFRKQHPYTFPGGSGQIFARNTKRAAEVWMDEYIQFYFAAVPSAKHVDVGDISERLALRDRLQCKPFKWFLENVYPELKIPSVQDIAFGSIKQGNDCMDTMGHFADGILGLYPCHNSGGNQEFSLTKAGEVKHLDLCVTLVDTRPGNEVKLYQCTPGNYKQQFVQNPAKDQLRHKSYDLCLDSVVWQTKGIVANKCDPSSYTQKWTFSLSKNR

T1 sequence (S5S833 27-476, stated change not applied): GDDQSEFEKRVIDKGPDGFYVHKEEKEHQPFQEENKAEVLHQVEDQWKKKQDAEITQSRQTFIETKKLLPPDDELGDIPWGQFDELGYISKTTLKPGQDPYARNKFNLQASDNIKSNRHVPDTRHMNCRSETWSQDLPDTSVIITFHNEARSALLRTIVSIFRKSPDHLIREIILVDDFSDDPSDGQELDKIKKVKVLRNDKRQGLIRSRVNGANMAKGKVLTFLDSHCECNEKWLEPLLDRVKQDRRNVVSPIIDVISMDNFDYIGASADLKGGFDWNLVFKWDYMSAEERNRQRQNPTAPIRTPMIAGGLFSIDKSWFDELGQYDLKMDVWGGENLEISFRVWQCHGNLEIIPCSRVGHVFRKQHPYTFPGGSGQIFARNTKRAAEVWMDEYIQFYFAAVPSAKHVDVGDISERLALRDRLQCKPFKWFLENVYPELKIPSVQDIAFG

Structure (SMILES): O=c1ccn([C@@H]2O[C@H](COP(=O)(O)OP(=O)(O)O)[C@@H](O)[C@H]2O)c(=O)[nH]1 [UDP]
- activity at 0.05-0.75 mM UDP (ΔppGalNAcT): No significant differences between the enzyme expressed with lectin domain and the version without
- activity at 0.05-0.75 mM UDP (Bge-ppGalNAcT): Only for UDP an inhibition effect was experimentally observed.

— paper PMC6994419, “UDP-N-acetyl-α-D-galactosamine:polypeptide N-acetylgalactosaminyltransferase from the snail Biomphalaria glabrata – structural reflections” (Glycoconjugate Journal, 2019)
